The values below come from patent US5658938A, “Substituted 1H-imidazoles” (U C B S.A., priority 1994, dated 1997).

Structures are written as SMILES.

One series concerns presynaptic α2 -adrenergic receptors. Nature of the series: Inhibition of the contraction of the electrically stimulated guinea pig ileum (presynaptic α2-agonist activity). Conditions: guinea pig ileum longitudinal muscle strips, electrical stimulation. The source says:
Longitudinal muscle strips attached to an isometric strain gauge are suspended in Tyrode's solution and are stretched under a tension of 1 g (G. M. Drew, Brit. J. Pharmacol. 64, (1978), 293-300; M. Andrejak et al., Naunyn-Schmiedeberg's Arch. Pharmacol. 314, (1980), 83-87).
Electrical stimulation of the parasympathetic nerves associated with the ileum fragments causes a contraction of the muscle. This contraction is reduced in the presence of a presynaptic α2 -agonist and the magnitude by which the contraction is reduced depends on the concentration of the agonist used. This effect is antagonised by the simultaneous presence of an α2 -antagonist such as alpha-yohimbine.
The IC30 concentration (in mole/l) that reduces by 30% the intensity of the contraction of the muscle is determined.
For the compound `Cl.Oc1cccc2c1CCCC2c1c[nH]cn1` (stereo not drawn) [Compound F, 5,6,7,8-tetrahydro-5-(1H-imidazol-4-yl)-1-naphthalenol hydrochloride], the “IC30 (concentration that reduces by 30% the intensity of the contraction of the muscle)” value worked out at 3.7 nM.

Regarding `Cc1ccc2c(c1)CCCC2c1c[nH]cn1` (stereo not drawn) [Compound G, 4-(1,2,3,4-tetrahydro-6-methyl-1-naphthalenyl)-1H-imidazole], the “IC30 (concentration that reduces by 30% the intensity of the contraction of the muscle)” value was 30 nM.

As for `Cl.Oc1ccc2c(c1)CCC2c1c[nH]cn1` (stereo not drawn) [Compound H, 2,3-dihydro-1-(1H-imidazol-4-yl)-1H-indene-5-ol hydrochloride], the “IC30 (concentration that reduces by 30% the intensity of the contraction of the muscle)” value was found to be 36 nM.

For the compound `COc1cccc2c1C(c1c[nH]cn1)CCC2` (stereo not drawn) [Compound I, 4-(1,2,3,4-tetrahydro-8-methoxy-1-naphthalenyl)-1H-imidazole], the “IC30 (concentration that reduces by 30% the intensity of the contraction of the muscle)” value was 8000 nM.

For `COc1cc2c(cc1OC)C(c1c[nH]cn1)CCC2` (stereo not drawn) [Compound J, 4-(1,2,3,4-tetrahydro-6,7-dimethoxy-1-naphthalenyl)-1H-imidazole], the “IC30 (concentration that reduces by 30% the intensity of the contraction of the muscle)” value was determined as 130 nM.

For the next series, the target named is T1, postsynaptic α1 -adrenergic receptor (Rattus norvegicus, UniProt P23944).
T1 construct: isolated aorta of the rat; from tissue; host or cells: rat isolated aorta
T1 sequence (P23944 1-561): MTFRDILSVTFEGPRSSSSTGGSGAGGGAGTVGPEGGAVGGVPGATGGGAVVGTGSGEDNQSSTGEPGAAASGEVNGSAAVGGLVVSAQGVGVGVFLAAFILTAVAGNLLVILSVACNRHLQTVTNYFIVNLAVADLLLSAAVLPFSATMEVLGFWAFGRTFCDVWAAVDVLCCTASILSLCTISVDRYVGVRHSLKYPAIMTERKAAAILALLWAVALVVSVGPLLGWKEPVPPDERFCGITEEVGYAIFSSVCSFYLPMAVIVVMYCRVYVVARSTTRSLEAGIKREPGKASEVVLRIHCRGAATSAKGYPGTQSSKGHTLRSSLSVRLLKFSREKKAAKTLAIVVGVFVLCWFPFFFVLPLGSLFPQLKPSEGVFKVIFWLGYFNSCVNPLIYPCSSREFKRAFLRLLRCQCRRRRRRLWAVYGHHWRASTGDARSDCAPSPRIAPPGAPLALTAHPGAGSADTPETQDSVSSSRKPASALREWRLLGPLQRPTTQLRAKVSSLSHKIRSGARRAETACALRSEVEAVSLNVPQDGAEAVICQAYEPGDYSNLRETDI
Nature of the series: Postsynaptic α1-antagonist activity: inhibition of norepinephrine-induced contraction of the isolated aorta of the rat. The note with it: read-out: ED30 (concentration which causes 30% inhibition of the contraction induced by norepinephrine). The procedure:
A non selective α-agonist substance such as norepinephrine induces a sustained contraction of the isolated aorta of the rat (J. M. Van Rossum Arch. Int. Pharmacodyn. 143, (1963), 299-330). This contraction can be inhibited by α1 -adrenergic blocking substances such as prazosin. In this test, a control contraction is carried out with norepinephrine at 3.2×10^-8 mole/l. After washing and stabilizing the preparation, the compound to be tested is added to the bath. Norepinephrine is added 5 minutes after the compound tested, and inhibition of the contraction induced by norepinephrine is measured. Next, inhibition of the contraction induced by norepinephrine is evaluated a second and third time in the presence of increasing concentrations of the compound tested.
For the compound `Cl.Oc1cccc2c1CCCC2c1c[nH]cn1` (stereo not drawn) [Compound F, 5,6,7,8-tetrahydro-5-(1H-imidazol-4-yl)-1-naphthalenol hydrochloride], the IC30 was 230 nM.

As to `Cc1ccc2c(c1)CCCC2c1c[nH]cn1` (stereo not drawn) [Compound G, 4-(1,2,3,4-tetrahydro-6-methyl-1-naphthalenyl)-1H-imidazole], the IC30 was 72 nM.

Take `Cl.Oc1ccc2c(c1)CCC2c1c[nH]cn1` (stereo not drawn) [Compound H, 2,3-dihydro-1-(1H-imidazol-4-yl)-1H-indene-5-ol hydrochloride]: the IC30 came to 210 nM.

Consider `COc1cccc2c1C(c1c[nH]cn1)CCC2` (stereo not drawn) [Compound I, 4-(1,2,3,4-tetrahydro-8-methoxy-1-naphthalenyl)-1H-imidazole], for which the IC30 was determined as 1800 nM.

`COc1cc2c(cc1OC)C(c1c[nH]cn1)CCC2` (stereo not drawn) [Compound J, 4-(1,2,3,4-tetrahydro-6,7-dimethoxy-1-naphthalenyl)-1H-imidazole]: the IC30 was 2900 nM.

For another series, the system named is male NMRI mice. Nature of the series: Toxicity, Irwin's test. Format: in vivo. Conditions: intraperitoneal. As to the method:
The toxicity of the compounds of the invention has been determined in male NMRI mice by means of Irwin's test (S. Irwin, Psychopharmacologia (Berl.), 13, (1968), 222-257).
Progressive doses of the product studied are administered intraperitoneally to groups of three mice until a lethal dose is reached (dose causing the death of two out of three animals in 48 hours). It follows from this Table that the compounds of the invention are not very toxic.
As to `Cl.Oc1cccc2c1CCCC2c1c[nH]cn1` (stereo not drawn) [Compound F, 5,6,7,8-tetrahydro-5-(1H-imidazol-4-yl)-1-naphthalenol hydrochloride], the “Lethal dose (dose causing the death of two out of three animals in 48 hours)” value (shortened to “Lethal dose”) turned out to be 214.3 mg/kg.

For the compound `Cc1ccc2c(c1)CCCC2c1c[nH]cn1` (stereo not drawn) [Compound G, 4-(1,2,3,4-tetrahydro-6-methyl-1-naphthalenyl)-1H-imidazole], the “Lethal dose” value is listed as 118.9 mg/kg.

For the compound `Cl.Oc1ccc2c(c1)CCC2c1c[nH]cn1` (stereo not drawn) [Compound H, 2,3-dihydro-1-(1H-imidazol-4-yl)-1H-indene-5-ol hydrochloride], the “Lethal dose” value turned out to be 236.7 mg/kg.

Take `COc1cccc2c1C(c1c[nH]cn1)CCC2` (stereo not drawn) [Compound I, 4-(1,2,3,4-tetrahydro-8-methoxy-1-naphthalenyl)-1H-imidazole]: the “Lethal dose” value is recorded as 228.3 mg/kg.

Turning to `COc1cc2c(cc1OC)C(c1c[nH]cn1)CCC2` (stereo not drawn) [Compound J, 4-(1,2,3,4-tetrahydro-6,7-dimethoxy-1-naphthalenyl)-1H-imidazole], the “Lethal dose” value came to 258.3 mg/kg.

A further series relates to coronary occlusion in the rat. Nature of the series: Anti-ischemic and anti-hypertensive activity: coronary occlusion in the anesthetized rat (elevation of the T wave of the electrocardiogram, arterial pressure). Format: in vivo, male albino rat of the Sprague-Dawley strain. The note with it: Rattus norvegicus, iv, 0.5 h, read-out: ΔPa (maximum lowering of arterial pressure). The source says:
The cardiac anti-ischemic activity of compounds manifests itself by their capacity to oppose the elevation of the T wave of the electrocardiogram, induced by a coronary occlusion in the rat. Continuous monitoring of the arterial pressure also enables to reveal the anti-hypertensive effects. The animal used for the test is a male albino rat of the Sprague-Dawley strain, weighing 220 to 280 g. On the day of the experiment, the animal is anesthetized by intraperitoneal administration of pentobarbital (60 mg/kg), then placed under endotracheal intubation. A ligature system is fitted around the descending left anterior coronary artery according to the procedure of Johnston et el. (Can. J. Physiol. Pharmacol., 61 (1983), 1340-1353). After closing the thorax, three electrodes are arranged on the body of the animal ("V4" thoracic derivation), in order to continuously record the shape of the electrocardiogram signal (in particular the T wave). Catheters are introduced into the right carotid artery and the right jugular vein to measure the arterial pressure and to administer intravenously the compound tested or the vehicle solution. Four 45 second coronary occlusions are performed, separated by episodes of reperfusion of 30, 35 and 30 minutes respectively. The compound to be studied or the vehicle are administered intravenously in bolus, 30 minutes before occlusion 3. The T electrocardiographic signal and the arterial pressure are continuously measured during the entire experiment.
The effects of the compounds according to the invention are quantified by comparing the amplitude of the elevation of the T wave at occlusions 3 and 4 (that is 30 minutes and 60 minutes after administration) with its value at occlusion 2 (that is before administration).
the second column indicates the dose of compound administered, expressed in mole/kg;
the third and the fourth columns indicate the anti-ischemic effect caused by administering the compound tested. The anti-ischemic effect represents the reduction in the elevation of the T wave caused by coronary occlusions 3 and 4, expressed in % with respect to occlusion 2, before administration of the compound (ΔT3 and ΔT4 respectively);
the fifth and sixth columns indicate the anti-hypertensive effect caused by administration of the compound tested. The anti-hypertensive effect is expressed as the maximum lowering of arterial pressure, measured a) between 5 and 30 minutes, and b) between 30 and 60 minutes after intravenous injection of the compound tested (ΔPa and ΔPb respectively). This lowering is expressed in % with respect to the value measured before injection.
Consider `Cl.Oc1cccc2c1CCCC2c1c[nH]cn1` (stereo not drawn) [Compound F, 5,6,7,8-tetrahydro-5-(1H-imidazol-4-yl)-1-naphthalenol hydrochloride], for which the change in vivo at 3 µmol/kg is -32%.

For `Cc1ccc2c(c1)CCCC2c1c[nH]cn1` (stereo not drawn) [Compound G, 4-(1,2,3,4-tetrahydro-6-methyl-1-naphthalenyl)-1H-imidazole], the change in vivo at 3 µmol/kg was -22%.

For the compound `Cl.Oc1ccc2c(c1)CCC2c1c[nH]cn1` (stereo not drawn) [Compound H, 2,3-dihydro-1-(1H-imidazol-4-yl)-1H-indene-5-ol hydrochloride], the change in vivo at 3 µmol/kg is -23%.

As to `COc1cccc2c1C(c1c[nH]cn1)CCC2` (stereo not drawn) [Compound I, 4-(1,2,3,4-tetrahydro-8-methoxy-1-naphthalenyl)-1H-imidazole], the change in vivo at 1 µmol/kg was -26%.

With `COc1cc2c(cc1OC)C(c1c[nH]cn1)CCC2` (stereo not drawn) [Compound J, 4-(1,2,3,4-tetrahydro-6,7-dimethoxy-1-naphthalenyl)-1H-imidazole], the change in vivo at 1 µmol/kg is -23%.

The same series, now with this note: Rattus norvegicus, iv, 0.5 h, read-out: ΔT3 (anti-ischemic effect: change in elevation of the T wave, occlusion 3 vs occlusion 2).
As for `Cl.Oc1cccc2c1CCCC2c1c[nH]cn1` (stereo not drawn) [Compound F, 5,6,7,8-tetrahydro-5-(1H-imidazol-4-yl)-1-naphthalenol hydrochloride], the change in vivo at 3 µmol/kg is -64%.

In the case of `Cc1ccc2c(c1)CCCC2c1c[nH]cn1` (stereo not drawn) [Compound G, 4-(1,2,3,4-tetrahydro-6-methyl-1-naphthalenyl)-1H-imidazole], the change in vivo at 3 µmol/kg was -24%.

`Cl.Oc1ccc2c(c1)CCC2c1c[nH]cn1` (stereo not drawn) [Compound H, 2,3-dihydro-1-(1H-imidazol-4-yl)-1H-indene-5-ol hydrochloride]: the change in vivo at 3 µmol/kg was -48%.

For the compound `COc1cccc2c1C(c1c[nH]cn1)CCC2` (stereo not drawn) [Compound I, 4-(1,2,3,4-tetrahydro-8-methoxy-1-naphthalenyl)-1H-imidazole], the change in vivo at 1 µmol/kg was -37%.

For `COc1cc2c(cc1OC)C(c1c[nH]cn1)CCC2` (stereo not drawn) [Compound J, 4-(1,2,3,4-tetrahydro-6,7-dimethoxy-1-naphthalenyl)-1H-imidazole], the change in vivo at 1 µmol/kg is -31%.

The same series, now with this note: Rattus norvegicus, iv, 1 h, read-out: ΔPb (maximum lowering of arterial pressure).
As to `Cl.Oc1cccc2c1CCCC2c1c[nH]cn1` (stereo not drawn) [Compound F, 5,6,7,8-tetrahydro-5-(1H-imidazol-4-yl)-1-naphthalenol hydrochloride], the change in vivo at 3 µmol/kg was -36%.

For the compound `Cc1ccc2c(c1)CCCC2c1c[nH]cn1` (stereo not drawn) [Compound G, 4-(1,2,3,4-tetrahydro-6-methyl-1-naphthalenyl)-1H-imidazole], the change in vivo at 3 µmol/kg is -14%.

On to `Cl.Oc1ccc2c(c1)CCC2c1c[nH]cn1` (stereo not drawn) [Compound H, 2,3-dihydro-1-(1H-imidazol-4-yl)-1H-indene-5-ol hydrochloride], for which the change in vivo at 3 µmol/kg was -19%.

Turning to `COc1cccc2c1C(c1c[nH]cn1)CCC2` (stereo not drawn) [Compound I, 4-(1,2,3,4-tetrahydro-8-methoxy-1-naphthalenyl)-1H-imidazole], the change in vivo at 1 µmol/kg was -16%.

Regarding `COc1cc2c(cc1OC)C(c1c[nH]cn1)CCC2` (stereo not drawn) [Compound J, 4-(1,2,3,4-tetrahydro-6,7-dimethoxy-1-naphthalenyl)-1H-imidazole], the change in vivo at 1 µmol/kg is -16%.

The series is the same for the next values; noted with them: Rattus norvegicus, iv, 1 h, read-out: ΔT4 (anti-ischemic effect: change in elevation of the T wave, occlusion 4 vs occlusion 2).
For `Cl.Oc1cccc2c1CCCC2c1c[nH]cn1` (stereo not drawn) [Compound F, 5,6,7,8-tetrahydro-5-(1H-imidazol-4-yl)-1-naphthalenol hydrochloride], the change in vivo at 3 µmol/kg is -59%.

Turning to `Cc1ccc2c(c1)CCCC2c1c[nH]cn1` (stereo not drawn) [Compound G, 4-(1,2,3,4-tetrahydro-6-methyl-1-naphthalenyl)-1H-imidazole], the change in vivo at 3 µmol/kg was -16%.

For `Cl.Oc1ccc2c(c1)CCC2c1c[nH]cn1` (stereo not drawn) [Compound H, 2,3-dihydro-1-(1H-imidazol-4-yl)-1H-indene-5-ol hydrochloride], the change in vivo at 3 µmol/kg was -55%.

For the compound `COc1cccc2c1C(c1c[nH]cn1)CCC2` (stereo not drawn) [Compound I, 4-(1,2,3,4-tetrahydro-8-methoxy-1-naphthalenyl)-1H-imidazole], the change in vivo at 1 µmol/kg is -57%.

`COc1cc2c(cc1OC)C(c1c[nH]cn1)CCC2` (stereo not drawn) [Compound J, 4-(1,2,3,4-tetrahydro-6,7-dimethoxy-1-naphthalenyl)-1H-imidazole]: the change in vivo at 1 µmol/kg is -29%.

The next series concerns α-adrenergic receptors.
Assay: not given
The note with it: cited from earlier work.
With `CC1(c2c[nH]cn2)CCCc2ccccc21` (stereo not drawn) [4-(1,2,3,4-tetrahydro-1-methyl-1-naphthalenyl)-1H-imidazole], the “affinity towards α-adrenergic receptors, in words” value is listed as “slight affinity”.
